Reference: patent US11504394B2, “Targeted ionophore-based metal delivery” (The Regents of the University of California, priority 2018, dated 2022)

How the values were obtained:
[1] = Dynamic light scattering, colloidal aggregate formation; assay type: physicochemical
Protocol: To assess colloidal aggregate formation, Gal-Cu(gtsm) was dissolved in PBS (pH 7.4) to a final concentration of 1 mM. The hydrodynamic diameter (DH) of the formed colloidal particles were determined by dynamic light scattering (DLS) obtained on a Zetasizer® Nano Series (Malvern Instruments, UK) and reported as the number-weighted mean. Samples were filtered with a 0.2 μm syringe filter and measured with a disposable ZEN0040 cuvette. Peaks of varying sizes were found, indicating a polydisperse formation of Gal-Cu(gtsm) aggregates. Measurements were taken in triplicate. Error is reported as the standard deviation from three separate replicates.

[2] = system: HEK 293T (no ASGPR expression) cells; assay: Cellular copper delivery by ICP-MS, HEK 293T; assay type: cell-based; settings: 4 μM, three hours, serum-free DMEM
Protocol: Cells were maintained by the UC Berkeley Tissue Culture Facility. HEK 293T and HepG2 cells were maintained as a monolayer in exponential growth at 37° C. in a 5% CO2 atmosphere. HEK 293T cells were maintained in Dulbecco's Modified Eagle Medium (DMEM, Gibco) supplemented with 10% fetal bovine serum (FBS, Hyclone), and glutamax (Gibco). HepG2 cells were maintained in low glucose DMEM with L-glutamine and sodium pyruvate (Gibco). One day before ionophore treatment, cells were passaged and plated in DMEM with glutamax supplemented with 10% FBS on either poly D-lysine-coated (HEK 293T) or gelatin-coated (HepG2) sterile 6-well Corning polystyrene plates. Cells were grown to 60 to 80% confluency prior to ionophore treatment.
Cells were washed twice with serum-free DMEM. 2 mM stock solutions of Cu(gtsm) or Gal-Cu(gtsm) were diluted in serum-free DMEM to a final ionophore concentration of 4 μM. […] Samples (150 μL) were further diluted in 2 mL 2% nitric acid (made freshly from concentrated nitric acid and Milli-Q water) in 15 mL tubes (Sarstedt) and analyzed on a Thermo Fisher iCAP Qc ICP mass spectrometer in kinetic energy discrimination (KED) mode against a standard curve of known copper and phosphorus concentrations (CMS-5, Inorganic Ventures), with Ga (20 μg/L, Inorganic Ventures) as an internal standard. […]

[3] = system: blood urea nitrogen (BUN); assay: Blood urea nitrogen (BUN) assay on serum; assay type: in vivo, mice; settings: 0.75 mg Cu/kg
Protocol: Mice were immediately euthanized by cervical dislocation.
Liver lysate (TBARS Assay via TCA Method, Cayman Chemical) and serum (BUN Assay, Invitrogen; ALT Assay, Cayman Chemical) samples were processed according to manufacturer instructions; sample concentration was selected based on initial dilution screening to fall within linear range of the standard curve. All samples were analyzed in triplicate.

ATP7B = assay: Western blot of liver lysates, ATP7B; assay type: in vivo, mouse; settings: 6 and 24 hours
Protocol: (§1) Frozen mouse livers were minced into 50 mg samples on dry ice and homogenized in ice-cold RIPA buffer (25 mM Tris.HCl pH 7.6, 150 mM NaCl, 1% NP-40, 1% sodium deoxycholate, 0.1% SDS) containing protease inhibitor cocktail with EDTA (Roche) at 100 mg/mL using a hand-held mechanical homogenizer. Homogenates were incubated on ice for 30 min and centrifuged at 12,000×g for 20 min at 4° C. The soluble protein lysates were collected from underneath the upper lipid layer with a pipette and transferred to new tubes. Protein concentration was determined using a detergent-compatible Bradford Assay (Pierce).
(§2) Protein lysates were denatured in NuPAGE lithium dodecyl sulfate sample buffer (Invitrogen) containing 10% v/v β-mercaptoethanol as a reducing agent. […] The membranes were washed 5 times for 5 minutes in TBST, then visualized using enhanced chemiluminescence (Western Lighting Plus for visualizing CCS and ATP7B, Perkin Elmer; Western Clarity Max for visualizing CTR1 and MT, Bio-Rad) recorded on a BioRad GelDoc imaging station. β-actin was probed to determine equal loading using anti-β-actin (sc-69879, Santa Cruz Biotechnology) and AlexaFluor 647-conjugated anti-mouse IgG (A31571, Molecular Probes) antibodies at 1:5000 and 1:2500 dilutions, respectively, with visualization using fluorescence recorded on a BioRad GelDoc imaging station.

CTR1 = assay: Western blot of liver lysates, CTR1; assay type: in vivo, mouse; settings: 6 and 24 hour timepoints
Protocol: as §1, §2

For `CNC1=N[N+]2=CC=[N+]3N=C(NCCOCCOCCOC4OC(CO)C(O)C(O)C4NC(C)=O)[S][Cu-2]23[S]1` (stereo not drawn) [Gal-Cu(gtsm)], the number-weighted hydrodynamic diameter ([1]; 1 mM in PBS (pH 7.4), DLS, error = standard deviation) was 4.60±0.69 nm, the “colloid formation in aqueous buffer” value ([1]; aqueous buffer) was “forms colloids” and the “Cu increase relative to basal levels (^63Cu/^31P)” value [2] was “does not increase cellular copper beyond basal levels”. For the same compound, the BUN levels [3] was “not”, the “ATP7B expression in liver” value (ATP7B) was “increased” and the “CTR1 expression (monomer and truncated forms) in liver” value (CTR1) was “Increased expression”.
